In brackets after ≈: the same amount, converted by molar mass. Like-named read-outs stand apart in the source and are kept apart here.
Columns and labels:
tyrosinase = test: Inhibitory activity against tyrosinase (mushroom enzyme, L-tyrosine substrate, absorbance at 475 nm); type: biochemical, mushrooms; conditions: pH 6.8, 37° C., 10 minutes
Method: That is, a sample is introduced into a microplate, to which are added a phosphate buffer solution(pH 6.8) and a L-tyrosine solution.
Inhibitory Activity Against Tyrosinase
Enzyme tyrosinase extracted from mushrooms(manufactured by Sigma) was used in the present experiment. First, a substrate L-tyrosine was dissolved in phosphate buffer solution(0.05M, pH 6.8) to a concentration of 1.5 mM and then 0.01 ml of this solution was introduced to a 0.3 ml cuvette in a spectrophotometry. Dopa as a cofacter was prepared as a solution in a concentration of 0.06 mM and 0.01 ml of this dopa solution was added to the substrate solution. To the resulting mixture were added the inhibitor of formula (I) and phosphate buffer solution to a total volume of 0.31 ml. The reaction was started by adding 0.1 ml of an enzyme solution in which tyrosinase was dissolved in phosphate buffer solution in a concentration of 60 U/ml. 0.1 ml of phosphate buffer solution instead of the enzyme solution was added to the blank sample. The reaction was carried out for 10 minutes at 37° C. and then absorbance at 475 nm was measured using Spectrophotometer (Beckman DU-7500).
[formula] in the above formula A represents absorbance at 475 nm when the inhibitor is added, and
B represents absorbance at 475 nm when the inhibitor is not added.

[1] = system: B-16 mouse melanoma cells; test: Inhibitory effect against melanin biosynthesis in B-16 mouse melanoma cell; type: cell-based; conditions: 72 h, read-out: IC50 (inhibition of melanin biosynthesis)
Method: Inhibitory Effect Against Melanin Biosynthesis in B-16 Mouse Melanoma Cell
B-16 mouse melanoma cells were cultured to a density of 10^6 cells/dish in culture media compounds in various concentrations were respectively added thereto and then cultured for 3 days. The cells were separated from the culture dish by the treatment with trypsin and then centrifuged to extract melanin(wherein a pellet was extracted using 2N perchloric acid). 1 ml of 1N aqueous sodium hydroxide solution was added to the melanin extracted and the resulting mixture was heated to dissolve melanrin. The absorbance at 400 nm was measured by a spectrophotometer and the amount of the melanin produced was represented by the absorbance per unit cell numbers(10^6 cell).

[2] = literature, J. Soc. Cosmet. Chem., 42, 361, 1991; cited from earlier work
[3] = background; cited from earlier work
[4] = B-16 mouse melanoma cells, 3 days, absorbance at 400 nm

| IC50 (inhibitory activity against tyrosinase) (tyrosinase) [µg/mL] | IC50 [1, 4] [µg/mL] | Structure (SMILES) | IC50 ([1]; Mus musculus) [µg/mL] | side effects [2] | whitening effect [3] |
| --- | --- | --- | --- | --- | --- |
| 1 (≈ 3.31 µM) | 5 (≈ 16.5 µM) | Cc1c(C)c(O)c(CCCc2ccc(O)cc2O)c(C)c1O [Compound 2, 4-13-(2,5-dihydroxy-3,4,6-trimethyl-phenyl)-propyll-benzene-1,3-diol] |  |  |  |
|  |  | O=c1cc(CO)occ1O [Kojic acid, reference compound] | 15 (≈ 106 µM) |  |  |
| 20 (≈ 63.2 µM) | 45 (≈ 142 µM) | COc1c(C)c(C)c(O)c(C)c1CCCc1ccc(O)cc1O [Compound 4] |  |  |  |
| 0.3 (≈ 0.842 µM) | 3 (≈ 8.42 µM) | Cc1c(C)c2c(c(CCCc3ccc(O)cc3O)c1O)CCC(C)(C)O2 [Compound 9, 4-[3-(6-hydroxy-2,2,7,8-tetramethyl-chroman-5-yl)-propyl]-benzene-1,3-diol] |  |  |  |
| 0.3 (≈ 0.805 µM) | 2 (≈ 5.37 µM) | Cc1c(C)c2c(c(C(O)CCc3ccc(O)cc3O)c1O)CCC(C)(C)O2 (centres unmarked) [Compound 8, 4-[3-hydroxy-3-(6-hydroxy-2,2,7,8-tetramethyl-chroman-5-yl)-propyl]-benzene-1,3-diol] |  |  |  |
| 0.1 (≈ 0.301 µM) | 5 (≈ 15 µM) | COc1c(C)c(C)c(O)c(C(O)CCc2ccc(O)cc2O)c1C (centres unmarked) [Compound 5, 4-[3-hydroxy-3-(2-hydroxy-5-methoxy-3,4,6-trimethyl-phenyl)-propyl]-benzene-1,3-diol] |  |  |  |
| 0.1 (≈ 0.316 µM) | 10 (≈ 31.6 µM) | COc1c(C)c(C)c(O)c(CCCc2ccc(O)cc2O)c1C [Compound 6, 4-[3-(2-hydroxy-5-methoxy-3,4,6-trimethyl-phenyl)-propyl]-benzene-1,3-diol] |  |  |  |
| 1.0 (≈ 2.89 µM) | 20 (≈ 57.7 µM) | CCOc1c(C)c(C)c(O)c(C(O)CCc2ccc(O)cc2O)c1C (centres unmarked) [Compound 7] |  |  |  |
| 0.5 (≈ 1.57 µM) | 10 (≈ 31.4 µM) | Cc1c(C)c(O)c(C(O)CCc2ccc(O)cc2O)c(C)c1O (centres unmarked) [Compound 1, 4-[3-hydroxy-3-(2,5-dihydroxy-3,4,6-trimethyl-phenyl)-propyl]-benzene-1,3-diol] |  |  |  |
|  | 300 (≈ 1100 µM) | OC[C@H]1O[C@@H](Oc2ccc(O)cc2)[C@H](O)[C@@H](O)[C@@H]1O [Arbutin, reference compound] |  |  | little whitening effect |
| 50 (≈ 150 µM) | 40 (≈ 120 µM) | COc1c(C)c(C)c(O)c(C)c1C(O)CCc1ccc(O)cc1O (centres unmarked) [Compound 3, 4-[3-hydroxy-3-(5-hydroxy-2-methoxy-3,4,6-trimethyl-phenyl)-propyl]-benzene-1,3-diol] |  |  |  |

| Structure (SMILES) | IC50 (inhibitory activity against tyrosinase) (tyrosinase) [µg/mL] | IC50 [1, 4] [µg/mL] | IC50 ([1]; Mus musculus) [µg/mL] | side effects [2] | whitening effect [3] |
| --- | --- | --- | --- | --- | --- |
| Oc1ccc(O)cc1 [Hydroquinone, reference compound] | 0.5 (≈ 4.54 µM) |  |  | degeneration or lethal mutation of melanin, damage of the cellular function |  |

From patent US6093836A, “1,3-diphenylpropane derivatives having inhibitory activity against tyrosinase and process for preparation thereof” (priority 1997, dated 2000)
